Data: patent US20240002374A1, “5-MEMBERED HETEROARYLAMINOSULFONAMIDES FOR TREATING CONDITIONS MEDIATED BY DEFICIENT CFTR ACTIVITY” (Genzyme Corporation, priority 2019, published 2024)

Target: T1, CFTR (primary human bronchial epithelial cells from a ΔF508 homozygous CF donor, CF-HBE cells) (Homo sapiens, UniProt P13569, DEL508-508)
T1 construct: Primary human bronchial epithelial cells from a ΔF508 homozygous CF donor; host or cells: primary human bronchial epithelial cells (CF-HBE) from a ΔF508 homozygous CF donor
T1 sequence (P13569 with tags, fused parts or gaps DEL508-508): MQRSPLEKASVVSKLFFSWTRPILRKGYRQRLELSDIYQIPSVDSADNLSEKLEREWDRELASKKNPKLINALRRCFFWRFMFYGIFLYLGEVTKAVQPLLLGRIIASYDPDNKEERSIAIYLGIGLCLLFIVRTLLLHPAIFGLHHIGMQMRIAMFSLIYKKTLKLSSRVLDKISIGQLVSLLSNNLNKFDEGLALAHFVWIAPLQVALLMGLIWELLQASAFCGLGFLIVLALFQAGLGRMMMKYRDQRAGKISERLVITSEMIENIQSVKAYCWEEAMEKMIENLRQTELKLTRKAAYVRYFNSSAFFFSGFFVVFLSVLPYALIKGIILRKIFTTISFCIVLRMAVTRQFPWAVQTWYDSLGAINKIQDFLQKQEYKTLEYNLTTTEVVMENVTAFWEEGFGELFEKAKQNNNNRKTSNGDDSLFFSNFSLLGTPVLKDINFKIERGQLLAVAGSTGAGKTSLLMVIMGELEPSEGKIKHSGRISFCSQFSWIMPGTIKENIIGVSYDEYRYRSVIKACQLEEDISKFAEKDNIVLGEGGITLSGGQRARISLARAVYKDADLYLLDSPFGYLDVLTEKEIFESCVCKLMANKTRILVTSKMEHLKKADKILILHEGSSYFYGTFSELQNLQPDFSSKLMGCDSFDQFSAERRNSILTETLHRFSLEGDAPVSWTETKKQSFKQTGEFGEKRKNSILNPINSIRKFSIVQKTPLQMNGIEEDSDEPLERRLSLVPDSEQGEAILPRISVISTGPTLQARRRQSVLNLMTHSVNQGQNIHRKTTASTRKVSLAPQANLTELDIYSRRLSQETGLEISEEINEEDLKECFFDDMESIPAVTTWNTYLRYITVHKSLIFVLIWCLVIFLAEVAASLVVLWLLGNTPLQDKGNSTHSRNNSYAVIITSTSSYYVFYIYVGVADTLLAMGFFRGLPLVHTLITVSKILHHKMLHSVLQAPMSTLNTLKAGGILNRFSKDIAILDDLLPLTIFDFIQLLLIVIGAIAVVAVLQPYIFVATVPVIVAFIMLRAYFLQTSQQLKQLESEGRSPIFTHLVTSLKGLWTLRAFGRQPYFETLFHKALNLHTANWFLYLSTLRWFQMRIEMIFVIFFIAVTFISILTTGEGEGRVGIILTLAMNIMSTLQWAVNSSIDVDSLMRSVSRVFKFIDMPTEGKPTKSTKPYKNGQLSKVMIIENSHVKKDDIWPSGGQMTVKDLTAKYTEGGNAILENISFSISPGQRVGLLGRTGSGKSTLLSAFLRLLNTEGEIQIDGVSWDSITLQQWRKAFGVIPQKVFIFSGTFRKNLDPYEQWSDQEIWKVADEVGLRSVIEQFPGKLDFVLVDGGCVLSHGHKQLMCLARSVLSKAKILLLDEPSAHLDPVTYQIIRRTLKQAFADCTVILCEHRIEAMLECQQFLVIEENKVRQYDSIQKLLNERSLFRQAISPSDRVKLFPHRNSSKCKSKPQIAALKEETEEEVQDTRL
Assay: TECC24 recording of CFTR-mediated transepithelial chloride transport (TECC24 AUC fold over DMSO @ 3 μM)
Assay type: cell-based
Settings: 3 uM test agent; CF-HBE cells (ΔF508 homozygous) incubated 48 h; ratio of test agent AUC of forskolin-stimulated IEQ to vehicle (DMSO) AUC
Protocol: Example 510: TECC24 AUC Fold Over DMSO @ 3 μM
The effects of a test agent on CFTR-mediated transepithelial chloride transport was measured using TECC24 recording analysis. Test agents were solubilized in DMSO. Solubilized test agents were mixed with incubation medium containing DMEM/F12, Ultroser G (2%; Crescent Chemical, catalog #67042), Hyclone Fetal Clone H (2%; GE Healthcare, catalog #SH30066.02), bovine brain extract (0.25%; Lonza, catalog #CC-4098), insulin (2.5 μg/mL), IL-13 (10 ng/mL), hydrocortisone (20 nM), transferrin (2.5 μg/mL), triiodothyronine (500 nM), ethanolamine (250 nM), epinephrine (1.5 μM), phosphoethanolamine (250 nM), and retinoic acid (10 nM). Primary human bronchial epithelial cells from a ΔF508 homozygous CF donor (CF-HBE cells; from University of North Carolina Cystic Fibrosis Tissue Procurement Center), grown on Transwell HTS 24-well cell culture inserts (Costar, catalog #3378), were exposed to test agents or controls dissolved in incubation medium. The CF-HBE cells were cultured at 36.5° C. for 48 h before TECC24 recordings were performed in the presence or absence of test agent, a positive control or vehicle (DMSO).
Following incubation, the transwell cell culture inserts containing the test agent or control-treated CF-HBE cells were loaded onto a TECC24 apparatus (TECC v7 or MTECC v2; EP Design) to record the transepithelial voltage (VT) and resistance (TEER) using 4 AgCl electrodes per well configured in current-clamp mode. The apical and basolateral bath solutions both contained (in mM) 140 NaCl, 5 KCl, 2 CaCl2), 1 MgCl2, 10 Hepes, and 10 glucose (adjusted to pH 7.4 with NaOH) […]. To inhibit basal Na+ absorption, the ENaC inhibitor benzamil (10 μM) was added to the bath. Then, the adenylate cyclase activator, forskolin (10 μM), was added to the bath to activate CFTR. The forskolin-stimulated Cl− transport was halted by addition of bumetanide (20 μM), an inhibitor of the basolateral chloride co-transporter NKCC1, to the bath to confirm that the detected signal was chloride dependent. VT and TEER recordings were digitally acquired at routine intervals using TECC or MTECC software (EP Design). VT and TEER were transformed into equivalent transepithelial Cl− current (IEQ), and the Area Under the Curve (AUC) of the IEQ time course between forskolin and bumetanide addition is generated using Excel (Microsoft). Efficacy is expressed as the ratio of the test agent AUC divided by vehicle AUC. EC50s based on AUC are generated using the non-linear regression log(agonist) vs. response function in Prism software (GraphPad) with Hill Slope fixed=1.
If a test agent increased the AUC of the forskolin-stimulated IEQ relative to vehicle in CF-HBE cells, and this increase was inhibited by bumetanide, then the test agent was considered a CFTR corrector.

| Compound | TECC AUC vs. DMSO @ 3 uM |
| --- | --- |
| Cc1cccc(C)c1-c1nc(NS(=O)(=O)c2ccnc(N)c2)sc1N1CCOC(CCCC(C)(C)C)C1 (stereo not drawn) [Example 37, 2-Amino-N-(5-(2-(4,4-dimethylpentyl)morpholino)-4-(2,6-dimethylphenyl)thiazol-2-yl)pyridine-4-sulfonamide] | A (“A” refers to AUC > 5) |
| Cc1cccc(C)c1-c1nc(NS(=O)(=O)c2cccc(N)c2F)sc1N1CCOC2(CCC(C)(C)C2)C1 (stereo not drawn) [Example 38, 3-Amino-N-(5-(2,2-dimethyl-6-oxa-9-azaspiro[4.5]decan-9-yl)-4-(2,6-dimethylphenyl)thiazol-2-yl)-2-fluorobenzenesulfonamide] | A (“A” refers to AUC > 5) |
| CC(C)c1ccccc1-c1nc(NS(=O)(=O)c2cccc(N)c2F)sc1N1CCOC2(CCC(C)(C)C2)C1 (stereo not drawn) [Example 39, 3-Amino-N-(5-(2,2-dimethyl-6-oxa-9-azaspiro[4.5]decan-9-yl)-4-(2-isopropylphenyl)thiazol-2-yl)-2-fluorobenzenesulfonamide] | B (“B” refers to AUC 2-5) |
| CC(C)(C)CCCOc1ccn(-c2sc(NS(=O)(=O)c3ccccc3)nc2-c2ccccc2C(F)(F)F)n1 [Example 40, N-(5-(3-((4,4-Dimethylpentyl)oxy)-1H-pyrazol-1-yl)-4-(2-(trifluoromethyl)phenyl)thiazol-2-yl)benzenesulfonamide] | A (“A” refers to AUC > 5) |
| Cc1cccc(C)c1-c1nc(NS(=O)(=O)c2ccsc2)sc1-c1cccc(OCC(C)(C)C)c1 [Example 41, N-(4-(2,6-Dimethylphenyl)-5-(3-(neopentyloxy)phenyl)thiazol-2-yl)thiophene-3-sulfonamide] | A (“A” refers to AUC > 5) |
| Cc1cccc(C)c1-c1nc(NS(=O)(=O)c2ccc(F)c(N)c2)sc1-c1cc(F)cc(OCCC(C)(C)C)c1 [Example 42, 3-Amino-N-(5-(3-(3,3-dimethylbutoxy)-5-fluorophenyl)-4-(2,6-dimethylphenyl)thiazol-2-yl)-4-fluorobenzenesulfonamide] | B (“B” refers to AUC 2-5) |
| Cc1nn(C)cc1S(=O)(=O)Nc1nc(-c2ccccc2C(C)C)c(-c2cccc([C@H]3CC[C@@H](OC(F)(F)F)C3)c2)s1 [Example 46A1, N-(4-(2-Isopropylphenyl)-5-(3-((1S,3R)-3-(trifluoromethoxy)cyclopentyl)phenyl)thiazol-2-yl)-1,3-dimethyl-1H-pyrazole-4-sulfonamide] | C (“C” refers to AUC < 2) |
| Cc1nn(C)cc1S(=O)(=O)Nc1nc(-c2ccccc2C(C)C)c(-c2cccc([C@H]3CC[C@H](OC(F)(F)F)C3)c2)s1 [Example 46A2, N-(4-(2-Isopropylphenyl)-5-(3-((1S,3S)-3-(trifluoromethoxy)cyclopentyl)phenyl)thiazol-2-yl)-1,3-dimethyl-1H-pyrazole-4-sulfonamide] | B (“B” refers to AUC 2-5) |
| Cc1nn(C)cc1S(=O)(=O)Nc1nc(-c2ccccc2C(C)C)c(-c2cccc([C@@H]3CC[C@H](OC(F)(F)F)C3)c2)s1 [Example 46B1, N-(4-(2-Isopropylphenyl)-5-(3-((1R,3S)-3-(trifluoromethoxy)cyclopentyl)phenyl)thiazol-2-yl)-1,3-dimethyl-1H-pyrazole-4-sulfonamide] | A (“A” refers to AUC > 5) |
| Cc1nn(C)cc1S(=O)(=O)Nc1nc(-c2ccccc2C(C)C)c(-c2cccc([C@@H]3CC[C@@H](OC(F)(F)F)C3)c2)s1 [Example 46B2, N-(4-(2-Isopropylphenyl)-5-(3-((1R,3R)-3-(trifluoromethoxy)cyclopentyl)phenyl)thiazol-2-yl)-1,3-dimethyl-1H-pyrazole-4-sulfonamide] | C (“C” refers to AUC < 2) |
| Nc1cccc(S(=O)(=O)Nc2nc(-c3ccccc3C(F)(F)F)c(-c3cccc([C@@H]4CC[C@H](OC(F)(F)F)C4)c3)s2)c1F [Example 47B1, 3-Amino-2-fluoro-N-(5-(3-((1R,3S)-3-(trifluoromethoxy)cyclopentyl)phenyl)-4-(2-(trifluoromethyl)phenyl)thiazol-2-yl)benzenesulfonamide] | A (“A” refers to AUC > 5) |
| Nc1cccc(S(=O)(=O)Nc2nc(-c3ccccc3C(F)(F)F)c(-c3cccc([C@@H]4CC[C@@H](OC(F)(F)F)C4)c3)s2)c1F [Example 47B2, 3-Amino-2-fluoro-N-(5-(3-((1R,3R)-3-(trifluoromethoxy)cyclopentyl)phenyl)-4-(2-(trifluoromethyl)phenyl)thiazol-2-yl)benzenesulfonamide] | C (“C” refers to AUC < 2) |
| CC(C)c1ccccc1-c1nc(NS(=O)(=O)c2cccc(N)c2F)sc1-c1cccc([C@H]2CC[C@@H](OC(F)(F)F)C2)c1 [Example 48A1, 3-Amino-2-fluoro-N-(4-(2-isopropylphenyl)-5-(3-((1S,3R)-3-(trifluoromethoxy)cyclopentyl)phenyl)thiazol-2-yl)benzenesulfonamide] | A (“A” refers to AUC > 5) |
| CC(C)c1ccccc1-c1nc(NS(=O)(=O)c2cccc(N)c2F)sc1-c1cccc([C@H]2CC[C@H](OC(F)(F)F)C2)c1 [Example 48A2, 3-Amino-2-fluoro-N-(4-(2-isopropylphenyl)-5-(3-((1S,3S)-3-(trifluoromethoxy)cyclopentyl)phenyl)thiazol-2-yl)benzenesulfonamide] | A (“A” refers to AUC > 5) |
| CC(C)c1ccccc1-c1nc(NS(=O)(=O)c2cccc(N)c2F)sc1-c1cccc([C@@H]2CC[C@H](OC(F)(F)F)C2)c1 [Example 48B1, 3-Amino-2-fluoro-N-(4-(2-isopropylphenyl)-5-(3-((1R,3S)-3-(trifluoromethoxy)cyclopentyl)phenyl)thiazol-2-yl)benzenesulfonamide] | B (“B” refers to AUC 2-5) |
| CC(C)c1ccccc1-c1nc(NS(=O)(=O)c2cccc(N)c2F)sc1-c1cccc([C@@H]2CC[C@@H](OC(F)(F)F)C2)c1 [Example 48B2, 3-Amino-2-fluoro-N-(4-(2-isopropylphenyl)-5-(3-((1R,3R)-3-(trifluoromethoxy)cyclopentyl)phenyl)thiazol-2-yl)benzenesulfonamide] | B (“B” refers to AUC 2-5) |
| Cc1cccc(C)c1-c1nc(NS(=O)(=O)c2cccc(N(C)C)n2)sc1-c1cc(F)cc(OCCC(C)(C)C)c1 [Example 240, 6-(dimethylamino)-N-[5-[3-(3,3-dimethylbutoxy)-5-fluorophenyl]-4-(2,6-dimethylphenyl)-1,3-thiazol-2-yl]pyridine-2-sulfonamide] | A (“A” refers to AUC > 5) |
| Cc1cccc(C)c1-c1nc(NS(=O)(=O)c2cccc(S(C)(=O)=O)c2)sc1-c1cc(F)cc(OCCC(C)(C)C)c1 [Example 242, N-[5-[3-(3,3-dimethylbutoxy)-5-fluorophenyl]-4-(2,6-dimethylphenyl)-1,3-thiazol-2-yl]-3-methylsulfonylbenzenesulfonamide] | A (“A” refers to AUC > 5) |
| Cc1cccc(C)c1-c1nc(NS(=O)(=O)c2cccc([S+](C)[O-])c2)sc1-c1cc(F)cc(OCCC(C)(C)C)c1 (stereo not drawn) [Example 259, N-[5-[3-(3,3-dimethylbutoxy)-5-fluorophenyl]-4-(2,6-dimethylphenyl)-1,3-thiazol-2-yl]-3-methylsulfinylbenzenesulfonamide] | B (“B” refers to AUC 2-5) |
| Cc1cccc(C(F)(F)F)c1-c1nc(NS(=O)(=O)c2cccc(N)n2)sc1-c1cc(F)cc(OCCC(C)(C)C)c1 [Example 312, 6-amino-N-[5-[3-(3,3-dimethylbutoxy)-5-fluorophenyl]-4-[2-methyl-6-(trifluoromethyl)phenyl]-1,3-thiazol-2-yl]pyridine-2-sulfonamide] | A (“A” refers to AUC > 5) |
| Cc1cccc(OC(C)C)c1-c1nc(NS(=O)(=O)c2cccc(N(C)C)n2)sc1-c1cccc(OCCC(C)(C)C)c1 [Example 329, 6-(dimethylamino)-N-[5-[3-(3,3-dimethylbutoxy)phenyl]-4-(2-methyl-6-propan-2-yloxyphenyl)-1,3-thiazol-2-yl]pyridine-2-sulfonamide] | A (“A” refers to AUC > 5) |
